# According to PubChem BioAssay (NCI):
# Several values for one entry are separate records, joined by “and”; a condition that tells them apart may be missing. Identical values can stand only once.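 Each compound was tested at five concentrations against cells in 96-well plates for 48 hours. At the GI50, growth is halved. Definition used: TGI = concentration required for complete inhibition of growth.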
# Assays:
# Test in all cases: inhibition of tumour cell growth, NCI panel, 48 h
# SNB-75 CNS = tested on: SNB-75 CNS
# 786-0 renal = tested on: 786-0 renal
# MALME-3M melanoma = tested on: MALME-3M melanoma
# TK-10 renal = tested on: TK-10 renal
# LOX IMVI melanoma = tested on: LOX IMVI melanoma
# SK-OV-3 ovarian = tested on: SK-OV-3 ovarian
# HL-60(TB) leukemia = tested on: HL-60(TB) leukemia
# SR leukemia = tested on: SR leukemia
# HT29 colon = tested on: HT29 colon
# NCI/ADR-RES ovarian = tested on: NCI/ADR-RES ovarian
Compound,GI50 (SNB-75 CNS),TGI (SNB-75 CNS),GI50 (786-0 renal),TGI (786-0 renal),GI50 (MALME-3M melanoma),TGI (MALME-3M melanoma),GI50 (TK-10 renal),TGI (TK-10 renal),GI50 (LOX IMVI melanoma),TGI (LOX IMVI melanoma),GI50 (SK-OV-3 ovarian),TGI (SK-OV-3 ovarian),GI50 (HL-60(TB) leukemia),TGI (HL-60(TB) leukemia),GI50 (SR leukemia),TGI (SR leukemia),GI50 (HT29 colon),TGI (HT29 colon),GI50 (NCI/ADR-RES ovarian),TGI (NCI/ADR-RES ovarian)
CC(=O)Nc1ccc2c(c1)C(c1ccccc1Cl)=Nc1c(n[nH]c1C)N2,0.732 µM,6.24 µM,7.79 µM,> 25 µM,> 25 µM,> 25 µM,4.13 µM,> 25 µM,2.75 µM,> 25 µM,> 25 µM,> 25 µM,14.8 µM,> 25 µM,1.16 µM,> 25 µM,4.45 µM,> 25 µM,> 25 µM,> 25 µM
COc1cc(C2Cc3ncccc3-c3[nH]c(=O)c4cccnc4c32)cc(OC)c1OC (stereo not given),0.255 µM,> 100 µM,1.41 µM,> 100 µM,> 100 µM,> 100 µM,> 100 µM,> 100 µM,0.452 µM,> 100 µM,0.376 µM,> 100 µM,0.251 µM,2.95 µM,0.281 µM,> 100 µM,0.347 µM,> 100 µM,2.16 µM,> 100 µM
O=C(Oc1cccc2cccnc12)c1cc2c(cc1Cl)SC(N(c1ccc(F)cc1)S(=O)(=O)c1ccc(Br)s1)=NS2(=O)=O,26.5 µM,93.5 µM,> 100 µM,> 100 µM,18.8 µM,49.6 µM,38.1 µM,> 100 µM,15.8 µM,64.2 µM,> 100 µM,> 100 µM,26.4 µM,> 100 µM,46.2 µM,> 100 µM,41 µM,> 100 µM,18.2 µM,66.4 µM
CCN1C(=S)N(c2ccccc2)C2NC(=S)N(/N=C/C=C/c3ccccc3OC)C21 (stereo not given),0.211 µM,4.36 µM,0.639 µM,> 100 µM,0.957 µM,> 100 µM,–,> 100 µM,0.482 µM,> 100 µM,0.647 µM,> 100 µM,0.245 µM,0.6 µM,0.3 µM,–,0.329 µM,–,0.307 µM,> 100 µM
CC(=O)c1ccc2c(c1)c1cc(C(C)=O)ccc1n2CCNC(C)C,0.383 µM,2.41 µM,0.456 µM,3.32 µM,0.23 µM,0.596 µM,0.531 µM,5.02 µM,0.211 µM,0.526 µM,1.25 µM,8.76 µM,0.362 µM,2.67 µM,0.142 µM,11.4 µM,0.342 µM,2.18 µM,0.371 µM,8.09 µM
CCOC(=O)c1cc(C(=O)c2cc(OC)c(OC)c(OC)c2)n2ncccc12,0.175 µM,42.4 µM,2.17 µM,> 100 µM,–,> 100 µM,26.4 µM,> 100 µM,2.46 µM,> 100 µM,0.472 µM,> 95.1 µM,0.251 µM,0.763 µM,0.126 µM,> 100 µM,0.245 µM,> 100 µM,0.237 µM,> 42.9 µM
CCN1C/C(=C\c2cc(OC)c(OC)cc2OC)C(=O)/C(=C/c2cc(OC)c(OC)cc2OC)C1,5.86 µM,78 µM,2.87 µM,8.09 µM,1.94 µM,3.59 µM,3.88 µM,11.3 µM,2.25 µM,5.55 µM,3.69 µM,> 100 µM,2.84 µM,8.26 µM,3.16 µM,8.99 µM,2.63 µM,5.69 µM,3.12 µM,> 100 µM
COc1cc(/C=C\c2cc(OC)c(OC)c(OC)c2)cc(N/C=C\C(=O)c2ccc(OC(F)(F)F)cc2)c1OC,2.65 µM,24 µM,4.34 µM,> 100 µM,14.7 µM,> 100 µM,4.79 µM,> 100 µM,5.95 µM,> 100 µM,5.38 µM,> 100 µM,2.8 µM,8.08 µM,2.75 µM,41.1 µM,3.07 µM,16.5 µM,3.04 µM,9.85 µM
COc1ccc(C2CC(c3cccc(Nc4ccnc5cc(Cl)ccc45)c3)=NN2C=O)cc1 (stereo not given),0.244 µM,3.01 µM,0.665 µM,30.8 µM,–,> 100 µM,0.882 µM,7.86 µM,0.584 µM,6.8 µM,0.795 µM,> 35.6 µM,0.257 µM,0.774 µM,0.271 µM,2.04 µM,0.349 µM,1.54 µM,0.379 µM,4.92 µM
COC(=O)c1n[nH]c(C)c1N=NN(C)CCC#N,–,33 µM,–,48.4 µM,–,34.6 µM,–,62.4 µM,–,> 100 µM,–,61.5 µM,–,87.6 µM,–,44.6 µM,–,87.8 µM,–,36.4 µM
Nc1nccc(-c2c(-c3ccc(F)cc3)ncn2C2CCNCC2)n1,2.91 µM and 1.17 µM,> 23.4 µM and 12.7 µM,16 µM and 5.59 µM,> 25 µM,8.72 µM and 5.23 µM,> 25 µM and 21.4 µM,7.66 µM and 2.79 µM,> 25 µM and 14.8 µM,2.84 µM and 2.33 µM,> 25 µM,3.34 µM and 5.45 µM,> 25 µM,> 25 µM and 6.47 µM,> 25 µM,10.2 µM and 2.23 µM,> 25 µM,1.68 µM and 1.28 µM,> 25 µM,> 25 µM and 5.1 µM,> 25 µM
CCN(CC)c1ccc(/C=N/NC(=O)CSc2nc3ccccc3c(=O)n2CCc2ccc(S(N)(=O)=O)cc2)c(O)c1,3.43 µM,> 100 µM,4.46 µM,> 100 µM,3.26 µM,> 100 µM,5.71 µM,> 100 µM,1.09 µM,6.66 µM,2.72 µM,> 100 µM,1.71 µM,6.44 µM,0.445 µM,> 100 µM,8.93 µM,> 100 µM,> 100 µM,> 100 µM
CC(C)c1[nH]nc(C(N)=O)c1N=NN(C)C,–,> 100 µM,–,> 100 µM,–,> 100 µM,–,> 100 µM,–,> 100 µM,–,> 100 µM,–,> 100 µM,–,71.2 µM,–,> 100 µM,–,> 100 µM
CCN(Cc1ccc(C)cc1)c1ccc(CO)c(Cl)c1,4.8 µM,20.9 µM,4.32 µM,19.3 µM,15.5 µM,32.2 µM,0.0795 µM,0.309 µM,7.05 µM,19.9 µM,4.23 µM,16.8 µM,5.78 µM,35.7 µM,17.6 µM,46.8 µM,2.49 µM,14.7 µM,11.1 µM,25.3 µM
c1ccc2sc(SCCSc3nc4ccccc4s3)nc2c1,–,> 100 µM,–,> 100 µM,–,> 100 µM,–,> 100 µM,–,> 100 µM,–,> 100 µM,–,> 100 µM,–,> 100 µM,–,> 100 µM,–,> 100 µM
NNC(=S)N/N=C(\C(=O)Nc1cccc(O)c1)C1C(=O)NC(=S)NC1=O,–,> 100 µM,–,> 100 µM,–,> 100 µM,–,> 100 µM,–,> 100 µM,–,> 100 µM,–,> 100 µM,–,> 100 µM,–,> 100 µM,–,> 100 µM
CC(C)(Br)C(=O)N1CCN(C(c2ccccc2)c2ccccc2)CC1,–,> 100 µM,–,> 100 µM,–,> 100 µM,–,> 100 µM,–,> 100 µM,–,> 100 µM,–,41.9 µM,–,> 100 µM,–,> 100 µM,–,> 100 µM
CC(=O)O[C@H]1C(=O)[C@@]2(C)C(C(OC(=O)c3ccccc3)[C@]3(O)C[C@H](OC(=O)C(OC(=O)CCCC(=O)NCCCN(C)C)C(NC(=O)c4ccccc4)c4ccccc4)C(C)=C1C3(C)C)C1(OC(C)=O)COC1C[C@@H]2O (stereo not given in full),–,0.021 µM,–,11 µM,–,20.8 µM,–,33.3 µM,–,19.2 µM,–,1.45 µM,–,0.0832 µM,–,58.2 µM,–,2.22 µM,–,70.7 µM
